Assay results reported in ChEMBL document CHEMBL1909515, “Discovery of a new type inhibitor of human glyoxalase I by myricetin-based 4-point pharmacophore” (Bioorg Med Chem Lett, 2011).
pIC50: −log10 of the molar value. Calls of active or inactive are those of the source. The calls are words filed in the database; no cut-off is given here.

Legend:
[1] = molecular target: T1, Lactoylglutathione lyase (Homo sapiens, UniProt Q04760); assay: Inhibition of recombinant human His-tagged glyoxalase 1 expressed in Escherichia coli BL21 assessed as formation of S-D-lactoylglutathione after 5 mins by spectrophotometric method
Target sequence in this assay (Q04760 whole entry): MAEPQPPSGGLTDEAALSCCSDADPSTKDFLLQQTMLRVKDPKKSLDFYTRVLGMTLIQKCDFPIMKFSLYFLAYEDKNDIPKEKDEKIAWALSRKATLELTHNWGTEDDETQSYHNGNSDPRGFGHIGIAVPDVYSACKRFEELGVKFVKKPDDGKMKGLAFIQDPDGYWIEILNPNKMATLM

[2] = molecular target: T1, Lactoylglutathione lyase; assay: Inhibition of human recombinant His-tagged glyoxalase 1 expressed in Escherichia coli BL21 assessed as formation of S-D-lactoylglutathione at 100 uM after 5 mins by spectrophotometric method
Target sequence in this assay (Q04760 2-184 limits assumed): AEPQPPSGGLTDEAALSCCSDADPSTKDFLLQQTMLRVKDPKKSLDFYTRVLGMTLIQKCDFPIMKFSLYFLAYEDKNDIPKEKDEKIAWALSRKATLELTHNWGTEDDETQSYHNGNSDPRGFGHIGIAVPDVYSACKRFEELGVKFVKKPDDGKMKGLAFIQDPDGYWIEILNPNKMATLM

[3] = system: HL-60; assay: Antiproliferative activity against human HL60 cells at 300 uM; format: functional, cell-based
[4] = system: HL-60; assay: induction of apoptosis in human HL60 cells at 300 uM; format: functional, cell-based

Row | Structure (SMILES) | pIC50 [1] | inhibition [2] | Activity [3] | Activity [4]
1 | COc1ccc(C(=O)Nc2sc3c(c2C(=O)O)CCCC3)cc1 | 4.26 | Active | – | –
2 | COc1ccc(C(=O)Nc2ccccc2C(=O)O)cc1 | 4.03 | Active | – | –
3 | COc1ccc(/C=C(/CC(=O)O)c2nc3ccccc3s2)cc1 | 5.70 | Active | Active | Active
